Source: ChEMBL document CHEMBL4725309, “Potent, non-covalent reversible BTK inhibitors with 8-amino-imidazo[1,5-a]pyrazine core featuring 3-position bicyclic ring substitutes” (Bioorg Med Chem Lett, 2020)

What was measured:
[1] = target: T1, Tyrosine-protein kinase BTK (Homo sapiens, UniProt Q06187); experiment: Inhibition of BTK in human PBMC assessed as reduction in cell surface CD69 expression preincubated for 1 hr followed by stimulation with goat anti-human IgM F(ab')2 for 18 hrs by immunostaining analysis; format: tissue-based
T1 sequence (Q06187 whole entry): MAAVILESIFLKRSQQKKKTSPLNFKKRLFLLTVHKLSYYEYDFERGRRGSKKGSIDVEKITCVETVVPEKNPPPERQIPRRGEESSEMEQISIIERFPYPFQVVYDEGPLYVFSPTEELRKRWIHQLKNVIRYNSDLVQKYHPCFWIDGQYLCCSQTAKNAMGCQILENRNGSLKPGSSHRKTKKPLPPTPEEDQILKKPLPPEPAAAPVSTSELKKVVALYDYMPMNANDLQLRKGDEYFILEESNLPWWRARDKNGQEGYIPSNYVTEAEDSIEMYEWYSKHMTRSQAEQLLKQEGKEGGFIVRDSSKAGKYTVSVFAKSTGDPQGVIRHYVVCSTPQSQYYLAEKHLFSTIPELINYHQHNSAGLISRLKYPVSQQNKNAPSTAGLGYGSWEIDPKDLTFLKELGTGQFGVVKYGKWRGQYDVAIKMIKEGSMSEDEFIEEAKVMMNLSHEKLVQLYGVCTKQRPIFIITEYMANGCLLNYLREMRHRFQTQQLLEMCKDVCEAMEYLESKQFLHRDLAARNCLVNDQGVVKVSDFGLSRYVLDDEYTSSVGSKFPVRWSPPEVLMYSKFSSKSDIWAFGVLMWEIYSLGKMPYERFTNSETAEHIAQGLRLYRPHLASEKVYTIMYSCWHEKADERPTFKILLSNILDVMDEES

Homo sapiens [2] = species: Homo sapiens; experiment: Selectivity index, ratio of IC50 for TXK (unknown origin) to IC50 for recombinant full length BTK (unknown origin) expressed in baculovirus infected Sf9 cells
Homo sapiens [3] = species: Homo sapiens; experiment: Selectivity index, ratio of IC50 for ERBB4 (unknown origin) to IC50 for recombinant full length BTK (unknown origin) expressed in baculovirus infected Sf9 cells
[4] = Volume of distribution at steady state in Wistar Han rat at 2 mg/kg, iv; format: ADME, organism-based; conditions: in vivo, read-out: Vdss
[5] = target: T1, Tyrosine-protein kinase BTK; experiment: Inhibition of BTK in human whole blood assessed as reduction in cell surface CD69 expression preincubated for 1 hr followed by stimulation with anti-CD79b for 3 hrs by immunostaining analysis; format: tissue-based
Homo sapiens [6] = species: Homo sapiens; experiment: Selectivity index, ratio of IC50 for TEC (unknown origin) to IC50 for recombinant full length BTK (unknown origin) expressed in baculovirus infected Sf9 cells
Homo sapiens [7] = species: Homo sapiens; experiment: Selectivity index, ratio of IC50 for SRC (unknown origin) to IC50 for recombinant full length BTK (unknown origin) expressed in baculovirus infected Sf9 cells
Homo sapiens [8] = species: Homo sapiens; experiment: Selectivity index, ratio of IC50 for CSK (unknown origin) to IC50 for recombinant full length BTK (unknown origin) expressed in baculovirus infected Sf9 cells
[9] = target: Tyrosine-protein kinase Yes (Homo sapiens, UniProt P07947); experiment: Inhibition of YES1 (unknown origin)
Tyrosine-protein kinase Yes, sequence (P07947 whole entry): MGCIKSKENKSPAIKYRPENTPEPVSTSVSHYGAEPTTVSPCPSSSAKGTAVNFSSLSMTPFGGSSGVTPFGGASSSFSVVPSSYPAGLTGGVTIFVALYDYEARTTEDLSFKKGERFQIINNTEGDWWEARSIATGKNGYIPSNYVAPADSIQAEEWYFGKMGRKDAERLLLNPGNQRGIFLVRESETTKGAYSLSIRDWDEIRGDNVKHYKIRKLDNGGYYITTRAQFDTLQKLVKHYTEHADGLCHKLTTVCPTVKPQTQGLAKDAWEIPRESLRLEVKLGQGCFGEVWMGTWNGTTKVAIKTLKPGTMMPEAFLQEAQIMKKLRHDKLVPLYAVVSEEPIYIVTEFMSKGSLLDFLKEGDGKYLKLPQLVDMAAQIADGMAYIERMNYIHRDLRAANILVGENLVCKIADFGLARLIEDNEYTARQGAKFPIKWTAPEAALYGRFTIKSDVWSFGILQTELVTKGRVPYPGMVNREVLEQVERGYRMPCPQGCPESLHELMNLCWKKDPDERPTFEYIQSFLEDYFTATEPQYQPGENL

[10] = target: Receptor tyrosine-protein kinase erbB-4 (Homo sapiens, UniProt Q15303); experiment: Inhibition of ERBB4 (unknown origin)
Receptor tyrosine-protein kinase erbB-4, sequence (Q15303 whole entry): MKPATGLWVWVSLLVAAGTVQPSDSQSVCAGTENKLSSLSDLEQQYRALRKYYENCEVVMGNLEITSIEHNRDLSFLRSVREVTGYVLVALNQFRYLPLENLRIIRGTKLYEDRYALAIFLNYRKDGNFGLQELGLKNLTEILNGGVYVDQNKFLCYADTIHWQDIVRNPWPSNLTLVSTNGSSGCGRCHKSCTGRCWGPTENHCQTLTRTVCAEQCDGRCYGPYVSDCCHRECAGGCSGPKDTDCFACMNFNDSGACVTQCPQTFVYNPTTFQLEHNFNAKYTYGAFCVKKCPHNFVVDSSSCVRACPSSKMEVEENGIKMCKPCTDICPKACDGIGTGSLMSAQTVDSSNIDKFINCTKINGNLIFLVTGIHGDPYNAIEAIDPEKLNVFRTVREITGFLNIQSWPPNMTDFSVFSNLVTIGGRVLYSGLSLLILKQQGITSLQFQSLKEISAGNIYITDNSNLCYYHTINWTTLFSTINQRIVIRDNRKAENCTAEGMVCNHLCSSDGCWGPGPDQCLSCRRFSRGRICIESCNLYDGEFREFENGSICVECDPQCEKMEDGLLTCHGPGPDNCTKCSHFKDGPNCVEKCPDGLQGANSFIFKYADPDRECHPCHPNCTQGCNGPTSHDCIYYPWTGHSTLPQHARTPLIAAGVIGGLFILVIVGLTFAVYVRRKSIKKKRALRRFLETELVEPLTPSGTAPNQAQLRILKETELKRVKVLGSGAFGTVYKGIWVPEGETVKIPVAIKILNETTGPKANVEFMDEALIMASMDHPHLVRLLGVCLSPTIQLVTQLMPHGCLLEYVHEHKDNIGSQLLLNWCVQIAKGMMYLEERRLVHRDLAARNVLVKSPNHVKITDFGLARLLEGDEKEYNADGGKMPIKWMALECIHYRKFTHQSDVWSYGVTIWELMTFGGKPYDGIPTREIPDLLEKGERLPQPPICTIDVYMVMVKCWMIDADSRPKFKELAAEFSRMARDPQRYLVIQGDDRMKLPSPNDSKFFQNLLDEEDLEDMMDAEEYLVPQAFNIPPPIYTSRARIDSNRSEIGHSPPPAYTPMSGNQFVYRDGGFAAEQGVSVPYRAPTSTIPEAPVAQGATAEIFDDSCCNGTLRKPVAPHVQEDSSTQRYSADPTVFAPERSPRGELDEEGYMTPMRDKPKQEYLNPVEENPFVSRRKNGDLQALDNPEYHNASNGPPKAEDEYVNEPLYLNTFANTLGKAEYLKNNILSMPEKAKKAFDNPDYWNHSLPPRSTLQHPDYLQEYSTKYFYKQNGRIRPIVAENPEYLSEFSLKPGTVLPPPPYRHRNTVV

Homo sapiens [11] = species: Homo sapiens; experiment: Selectivity index, ratio of IC50 for LYNB (unknown origin) to IC50 for recombinant full length BTK (unknown origin) expressed in baculovirus infected Sf9 cells
[12] = Tmax in Wistar Han rat at 5 mg/kg, po; format: ADME, organism-based; conditions: in vivo
Homo sapiens [13] = species: Homo sapiens; experiment: Selectivity index, ratio of IC50 for BLK (unknown origin) to IC50 for recombinant full length BTK (unknown origin) expressed in baculovirus infected Sf9 cells
Homo sapiens [14] = species: Homo sapiens; experiment: Selectivity index, ratio of IC50 for BMX (unknown origin) to IC50 for recombinant full length BTK (unknown origin) expressed in baculovirus infected Sf9 cells
[15] = target: T2, Tyrosine-protein kinase TXK (Homo sapiens, UniProt P42681); experiment: Inhibition of TXK (unknown origin)
T2 sequence (P42681 whole entry): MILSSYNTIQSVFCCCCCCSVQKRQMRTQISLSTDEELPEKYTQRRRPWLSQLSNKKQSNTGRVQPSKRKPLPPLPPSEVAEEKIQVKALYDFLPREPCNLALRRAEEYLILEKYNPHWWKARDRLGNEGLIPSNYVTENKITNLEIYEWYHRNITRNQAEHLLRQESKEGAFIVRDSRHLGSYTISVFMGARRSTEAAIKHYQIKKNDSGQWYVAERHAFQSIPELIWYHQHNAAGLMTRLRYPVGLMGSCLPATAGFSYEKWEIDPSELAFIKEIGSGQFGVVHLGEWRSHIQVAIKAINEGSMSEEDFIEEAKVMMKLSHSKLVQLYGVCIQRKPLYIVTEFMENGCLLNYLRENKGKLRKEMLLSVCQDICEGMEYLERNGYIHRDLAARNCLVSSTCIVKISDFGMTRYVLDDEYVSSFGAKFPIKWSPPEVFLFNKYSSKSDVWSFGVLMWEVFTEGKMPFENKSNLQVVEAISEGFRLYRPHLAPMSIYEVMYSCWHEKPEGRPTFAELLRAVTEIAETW

[16] = Cmax in Wistar Han rat at 5 mg/kg, po; format: ADME, organism-based; design: route oral, dose 5 mg/kg; conditions: in vivo
Homo sapiens [17] = species: Homo sapiens; experiment: Selectivity index, ratio of IC50 for FYN (unknown origin) to IC50 for recombinant full length BTK (unknown origin) expressed in baculovirus infected Sf9 cells
[18] = target: T3, Cytoplasmic tyrosine-protein kinase BMX (Homo sapiens, UniProt P51813); experiment: Inhibition of BMX (unknown origin)
T3 sequence (P51813 whole entry): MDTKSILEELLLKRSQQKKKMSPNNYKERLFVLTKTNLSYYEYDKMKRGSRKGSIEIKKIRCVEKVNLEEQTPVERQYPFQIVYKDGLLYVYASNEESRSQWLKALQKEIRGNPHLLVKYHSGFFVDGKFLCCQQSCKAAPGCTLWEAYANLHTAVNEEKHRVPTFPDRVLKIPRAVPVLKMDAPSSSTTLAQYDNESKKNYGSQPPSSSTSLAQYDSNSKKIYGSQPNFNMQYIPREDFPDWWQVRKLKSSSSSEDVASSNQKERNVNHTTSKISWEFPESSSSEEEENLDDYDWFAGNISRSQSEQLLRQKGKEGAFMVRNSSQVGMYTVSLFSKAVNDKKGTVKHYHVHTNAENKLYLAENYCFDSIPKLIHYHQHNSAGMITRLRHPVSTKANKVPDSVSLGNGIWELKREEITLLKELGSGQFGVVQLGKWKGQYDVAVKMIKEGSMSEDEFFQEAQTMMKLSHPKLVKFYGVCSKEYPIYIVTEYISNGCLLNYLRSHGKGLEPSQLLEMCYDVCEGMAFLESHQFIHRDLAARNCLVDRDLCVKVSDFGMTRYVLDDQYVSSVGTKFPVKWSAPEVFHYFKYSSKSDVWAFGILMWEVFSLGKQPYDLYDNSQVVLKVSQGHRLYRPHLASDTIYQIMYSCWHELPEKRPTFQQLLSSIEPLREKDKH

[19] = Clearance in Wistar Han rat at 2 mg/kg, iv; format: ADME, organism-based; conditions: in vivo
Homo sapiens [20] = species: Homo sapiens; experiment: Selectivity index, ratio of IC50 for YES1 (unknown origin) to IC50 for recombinant full length BTK (unknown origin) expressed in baculovirus infected Sf9 cells
Homo sapiens [21] = species: Homo sapiens; experiment: Selectivity index, ratio of IC50 for PTK6 (unknown origin) to IC50 for recombinant full length BTK (unknown origin) expressed in baculovirus infected Sf9 cells
[22] = target: Tyrosine-protein kinase Lck (Homo sapiens, UniProt P06239); experiment: Inhibition of LCK (unknown origin)
Tyrosine-protein kinase Lck, sequence (P06239 whole entry): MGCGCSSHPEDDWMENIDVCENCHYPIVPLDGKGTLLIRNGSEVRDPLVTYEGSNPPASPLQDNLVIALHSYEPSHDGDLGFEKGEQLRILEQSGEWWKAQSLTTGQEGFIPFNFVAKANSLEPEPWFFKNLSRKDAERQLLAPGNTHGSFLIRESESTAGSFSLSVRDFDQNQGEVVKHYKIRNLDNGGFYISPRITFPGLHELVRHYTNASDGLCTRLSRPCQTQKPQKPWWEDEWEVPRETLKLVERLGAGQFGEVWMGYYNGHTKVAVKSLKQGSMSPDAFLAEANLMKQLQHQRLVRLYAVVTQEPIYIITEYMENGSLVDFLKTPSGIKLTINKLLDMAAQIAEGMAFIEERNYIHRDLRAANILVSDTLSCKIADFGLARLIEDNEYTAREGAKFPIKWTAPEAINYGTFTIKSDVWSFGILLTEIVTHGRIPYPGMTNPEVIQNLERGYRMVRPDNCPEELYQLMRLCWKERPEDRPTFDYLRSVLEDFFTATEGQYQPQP

[23] = target: Tyrosine-protein kinase Fyn (Homo sapiens, UniProt P06241); experiment: Inhibition of FYN (unknown origin)
Tyrosine-protein kinase Fyn, sequence (P06241 whole entry): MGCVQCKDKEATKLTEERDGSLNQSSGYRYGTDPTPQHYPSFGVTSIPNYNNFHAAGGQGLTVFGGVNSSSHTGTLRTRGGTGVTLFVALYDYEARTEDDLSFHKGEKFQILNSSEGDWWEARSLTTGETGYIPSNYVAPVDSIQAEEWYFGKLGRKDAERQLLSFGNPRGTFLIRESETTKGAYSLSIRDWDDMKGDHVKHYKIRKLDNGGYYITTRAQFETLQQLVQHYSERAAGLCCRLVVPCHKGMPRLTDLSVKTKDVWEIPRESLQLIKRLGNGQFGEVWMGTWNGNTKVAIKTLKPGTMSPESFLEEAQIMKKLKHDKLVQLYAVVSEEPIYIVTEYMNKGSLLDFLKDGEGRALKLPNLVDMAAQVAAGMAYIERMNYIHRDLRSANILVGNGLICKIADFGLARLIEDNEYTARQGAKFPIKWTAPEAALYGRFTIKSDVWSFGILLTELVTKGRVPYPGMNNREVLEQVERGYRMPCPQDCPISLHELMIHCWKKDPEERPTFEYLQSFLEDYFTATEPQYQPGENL

[24] = target: Tyrosine-protein kinase Blk (Homo sapiens, UniProt P51451); experiment: Inhibition of BLK (unknown origin)
Tyrosine-protein kinase Blk, sequence (P51451 whole entry): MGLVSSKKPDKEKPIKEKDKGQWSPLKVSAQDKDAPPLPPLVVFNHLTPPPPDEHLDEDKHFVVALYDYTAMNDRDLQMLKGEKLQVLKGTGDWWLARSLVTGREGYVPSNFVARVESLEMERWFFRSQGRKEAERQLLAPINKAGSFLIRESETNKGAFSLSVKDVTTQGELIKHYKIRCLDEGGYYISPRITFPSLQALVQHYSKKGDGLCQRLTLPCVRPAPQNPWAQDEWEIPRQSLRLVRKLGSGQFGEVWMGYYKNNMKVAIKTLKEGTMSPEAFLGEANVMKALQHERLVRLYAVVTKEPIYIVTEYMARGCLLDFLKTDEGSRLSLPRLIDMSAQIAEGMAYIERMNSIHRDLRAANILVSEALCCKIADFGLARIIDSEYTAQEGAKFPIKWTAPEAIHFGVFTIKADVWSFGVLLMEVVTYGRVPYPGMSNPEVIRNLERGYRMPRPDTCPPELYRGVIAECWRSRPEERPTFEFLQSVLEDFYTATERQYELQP

[25] = target: Protein-tyrosine kinase 6 (Homo sapiens, UniProt Q13882); experiment: Inhibition of PTK6 (unknown origin)
Protein-tyrosine kinase 6, sequence (Q13882 whole entry): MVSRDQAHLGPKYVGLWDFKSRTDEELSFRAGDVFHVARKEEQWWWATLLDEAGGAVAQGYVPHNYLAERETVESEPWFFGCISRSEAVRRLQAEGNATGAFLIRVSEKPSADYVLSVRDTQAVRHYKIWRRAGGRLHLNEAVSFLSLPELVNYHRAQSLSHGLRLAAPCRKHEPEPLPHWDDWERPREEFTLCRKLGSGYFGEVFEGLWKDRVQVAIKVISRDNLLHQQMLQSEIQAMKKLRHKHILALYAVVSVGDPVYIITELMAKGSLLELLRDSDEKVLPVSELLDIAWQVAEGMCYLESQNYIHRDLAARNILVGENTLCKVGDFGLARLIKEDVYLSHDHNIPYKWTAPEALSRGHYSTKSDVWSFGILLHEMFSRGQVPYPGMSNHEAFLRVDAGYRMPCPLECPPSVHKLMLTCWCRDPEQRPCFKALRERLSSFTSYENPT

[26] = Oral bioavailability in Wistar Han rat at 5 mg/kg; format: ADME, organism-based; conditions: in vivo; for bioavailability: Wistar Han

Row | SMILES | IC50 [1] | Ratio IC50 (Homo sapiens [2]) | Ratio IC50 (Homo sapiens [3]) | Vd [4] | IC50 [5] | Ratio IC50 (Homo sapiens [6]) | Ratio IC50 (Homo sapiens [7]) | Ratio IC50 (Homo sapiens [8]) | IC50 [9] | IC50 [10] | Ratio IC50 (Homo sapiens [11]) | Tmax [12] | Ratio IC50 (Homo sapiens [13]) | Ratio IC50 (Homo sapiens [14]) | IC50 [15] | Cmax [16] | Ratio IC50 (Homo sapiens [17]) | IC50 [18] | clearance [19] | Ratio IC50 (Homo sapiens [20]) | other results
1 | CC1(C)OC(=O)N2C[C@H](c3nc(-c4ccc(C(=O)Nc5cc(C(F)(F)F)ccn5)cc4)c4c(N)nccn34)CC[C@H]21 | 2.8 nM | 125 | 190 | 5.6 L/kg | 58 nM | 220 | 570 | 2900 | 30 nM | 23 nM | 660 | 150 min | 140 | 47 | 15 nM | 1000 nM | 1700 | 5.6 nM | 26 mL/min/kg | 250 | Ratio IC50 (Homo sapiens [21]): 200; IC50 [22]: 13 nM; IC50 [23]: 212 nM; IC50 [24]: 17 nM; IC50 [25]: 24 nM; F ([26]; 5 mg/kg): 160%
2 | Nc1nccn2c([C@@H]3CC[C@H]4COC(=O)N4C3)nc(-c3ccc(C(=O)Nc4cc(C(F)(F)F)ccn4)cc3)c12 | 5.8 nM | 554 | 410 | 1.2 L/kg | 36 nM | 1110 | 1110 | 3500 | 35 nM | 34 nM | 590 | 15 min | 265 | 157 | 46 nM | 340 nM | 219 | 13 nM | 17 mL/min/kg | 420 | Ratio IC50 (Homo sapiens [21]): 600; IC50 [22]: 11 nM; IC50 [23]: 18 nM; IC50 [24]: 22 nM; IC50 [25]: 50 nM; bioavailability [26]: 3.6%
3 | Nc1nccn2c([C@@H]3CC[C@H]4CCC(=O)N4C3)nc(-c3ccc(C(=O)Nc4cc(C(F)(F)F)ccn4)cc3)c12 | 2.5 nM | 330 | 240 | 0.78 L/kg | 24 nM | 630 | 330 | 1620 | 12 nM | 24 nM | 200 | 45 min | 83 | 110 | 33 nM | 1300 nM | 870 | 11 nM | 8 mL/min/kg | 120 | Ratio IC50 (Homo sapiens [21]): 420; IC50 [22]: 5.9 nM; IC50 [23]: 87 nM; IC50 [24]: 8.3 nM; IC50 [25]: 42 nM; bioavailability [26]: 46%
